How the values were obtained:
SF-268 = assay: Cytotoxicity against human SF268 cells after 48 hrs by sulforhodamine B assay; type: functional; conditions: SF-268, 48 h
SW-620 [1] = assay: Cytotoxicity against human SW620 cells after 48 hrs by sulforhodamine B assay; type: functional; conditions: SW-620, 48 h
U-251 = assay: Cytotoxicity against human U251 cells after 48 hrs by sulforhodamine B assay; type: functional; conditions: U-251, 48 h
SR = assay: Cytotoxicity against human SR cells at 10 uM after 48 hrs by sulforhodamine B assay relative to control; type: functional
MDA-MB-231 = assay: Cytotoxicity against human MDA-MB-231 cells at 10 uM after 48 hrs by sulforhodamine B assay relative to control; type: functional
Malme-3M = assay: Cytotoxicity against human MALME-3M cells after 48 hrs by sulforhodamine B assay; type: functional
SF-539 = assay: Cytotoxicity against human SF539 cells at 10 uM after 48 hrs by sulforhodamine B assay relative to control; type: functional
COLO 205 = assay: Cytotoxicity against human COLO205 cells at 10 uM after 48 hrs by sulforhodamine B assay relative to control; type: functional
MDA-MB-468 = assay: Cytotoxicity against human MDA-MB-468 cells after 48 hrs by sulforhodamine B assay; type: functional; conditions: MDA-MB-468, 48 h
K562 [2] = assay: Cytotoxicity against human K562 cells after 48 hrs by sulforhodamine B assay; type: functional; conditions: K562, 48 h
IGROV-1 = assay: Cytotoxicity against human IGROV1 cells at 10 uM after 48 hrs by sulforhodamine B assay relative to control; type: functional
HCC 2998 = assay: Cytotoxicity against human HCC2998 cells after 48 hrs by sulforhodamine B assay; type: functional; conditions: HCC 2998, 48 h
SW-620 [3] = assay: Cytotoxicity against human SW620 cells at 10 uM after 48 hrs by sulforhodamine B assay relative to control; type: functional
A498 = assay: Cytotoxicity against human A498 cells after 48 hrs by sulforhodamine B assay; type: functional; conditions: A498, 48 h
MCF7 = assay: Cytotoxicity against human MCF7 cells after 48 hrs by sulforhodamine B assay; type: functional; conditions: MCF7, 48 h
OVCAR-4 = assay: Cytotoxicity against human OVCAR4 cells after 48 hrs by sulforhodamine B assay; type: functional; conditions: OVCAR-4, 48 h
DU-145 = assay: Cytotoxicity against human DU145 cells at 10 uM after 48 hrs by sulforhodamine B assay relative to control; type: functional
NCI-H226 [4] = assay: Cytotoxicity against human NCI-H226 cells at 10 uM after 48 hrs by sulforhodamine B assay relative to control; type: functional
RPMI-8226 = assay: Cytotoxicity against human RPMI8226 cells after 48 hrs by sulforhodamine B assay; type: functional; conditions: RPMI-8226, 48 h
[5] = Cytotoxicity against human Hs 578T cells after 48 hrs by sulforhodamine B assay; type: functional
NCI-H522 = assay: Cytotoxicity against human NCI-H522 cells after 48 hrs by sulforhodamine B assay; type: functional; conditions: NCI-H522, 48 h
SK-MEL-2 = assay: Cytotoxicity against human SK-MEL-2 cells after 48 hrs by sulforhodamine B assay; type: functional; conditions: SK-MEL-2, 48 h
MDA-MB-435 = assay: Cytotoxicity against human MDA-MB-435 cells after 48 hrs by sulforhodamine B assay; type: functional; conditions: MDA-MB-435, 48 h
NCI-H460 = assay: Cytotoxicity against human NCI-H460 cells at 10 uM after 48 hrs by sulforhodamine B assay relative to control; type: functional
RXF 393 = assay: Cytotoxicity against human RXF393 cells after 48 hrs by sulforhodamine B assay; type: functional; conditions: RXF 393, 48 h
NCI-H23 [6] = assay: Cytotoxicity against human NCI-H23 cells after 48 hrs by sulforhodamine B assay; type: functional; conditions: NCI-H23, 48 h
NCI-H23 [7] = assay: Cytotoxicity against human NCI-H23 cells at 10 uM after 48 hrs by sulforhodamine B assay relative to control; type: functional
K562 [8] = assay: Cytotoxicity against human K562 cells at 10 uM after 48 hrs by sulforhodamine B assay relative to control; type: functional
SN12C = assay: Cytotoxicity against human SN12C cells after 48 hrs by sulforhodamine B assay; type: functional
PC-3 = assay: Cytotoxicity against human PC3 cells after 48 hrs by sulforhodamine B assay; type: functional, cell-based; conditions: PC-3, 48 h
KM12 = assay: Cytotoxicity against human KM12 cells after 48 hrs by sulforhodamine B assay; type: functional; conditions: KM12, 48 h
BT-549 [9] = assay: Cytotoxicity against human BT549 cells at 10 uM after 48 hrs by sulforhodamine B assay relative to control; type: functional
NCI-H226 [10] = assay: Cytotoxicity against human NCI-H226 cells after 48 hrs by sulforhodamine B assay; type: functional; conditions: NCI-H226, 48 h
CAKI-1 = assay: Cytotoxicity against human CAKI-1 cells at 10 uM after 48 hrs by sulforhodamine B assay relative to control; type: functional
T47D = assay: Cytotoxicity against human T47D cells at 10 uM after 48 hrs by sulforhodamine B assay relative to control; type: functional
BT-549 [11] = assay: Cytotoxicity against human BT549 cells after 48 hrs by sulforhodamine B assay; type: functional; conditions: BT-549, 48 h
SK-MEL-5 = assay: Cytotoxicity against human SK-MEL-5 cells at 10 uM after 48 hrs by sulforhodamine B assay relative to control; type: functional
[12] = read-out: LC50 (the source's name)

CCCCNCC(=O)Nc1ccc2c(c1)C(=O)c1cc(NC(=O)CNCCCC)ccc1-2
GI50 (SF-268): 1.69 µM | TGI (SF-268): 3.97 µM | CC50 (SF-268; [12]): 9.33 µM | GI50 (SW-620 [1]): 1.25 µM | TGI (SW-620 [1]): 3 µM | CC50 (SW-620 [1]; [12]): 7.16 µM | GI50 (U-251): 1.31 µM | TGI (U-251): 2.65 µM | CC50 (U-251; [12]): 5.34 µM | Activity (SR): -56.48% | Activity (MDA-MB-231): -27.12% | GI50 (Malme-3M): 1.94 µM | TGI (Malme-3M): 3.98 µM | CC50 (Malme-3M; [12]): 8.17 µM | Activity (SF-539): -82.99% | Activity (COLO 205): -86.41% | GI50 (MDA-MB-468): 1.85 µM | TGI (MDA-MB-468): 3.57 µM | CC50 (MDA-MB-468; [12]): 6.89 µM | GI50 (K562 [2]): 0.39 µM | TGI (K562 [2]): 1.56 µM | CC50 (K562 [2]; [12]): 5.7 µM | Activity (IGROV-1): 46.91% | GI50 (HCC 2998): 1.54 µM | TGI (HCC 2998): 2.95 µM | CC50 (HCC 2998; [12]): 5.66 µM | Activity (SW-620 [3]): -4.84% | GI50 (A498): 1.63 µM | TGI (A498): 5.36 µM | CC50 (A498; [12]): 25.1 µM | GI50 (MCF7): 2.25 µM | TGI (MCF7): 8.79 µM | CC50 (MCF7; [12]): 4.4 µM | GI50 (OVCAR-4): 2.06 µM | TGI (OVCAR-4): 5.02 µM | CC50 (OVCAR-4; [12]): 15.9 µM | Activity (DU-145): 35.16% | Activity (NCI-H226 [4]): 67.92% | GI50 (RPMI-8226): 1.86 µM | TGI (RPMI-8226): 4.9 µM | CC50 (RPMI-8226; [12]): 4.6 µM | GI50 [5]: 2.63 µM | TGI [5]: 9.23 µM | CC50 [5, 12]: 70.9 µM | GI50 (NCI-H522): 2.08 µM | TGI (NCI-H522): 4.08 µM | CC50 (NCI-H522; [12]): 7.99 µM | GI50 (SK-MEL-2): 1.76 µM | TGI (SK-MEL-2): 3.3 µM | CC50 (SK-MEL-2; [12]): 6.18 µM | GI50 (MDA-MB-435): 1.63 µM | TGI (MDA-MB-435): 3.4 µM | CC50 (MDA-MB-435; [12]): 7.1 µM | Activity (NCI-H460): -27.51% | GI50 (RXF 393): 1.83 µM | TGI (RXF 393): 3.52 µM | CC50 (RXF 393; [12]): 6.78 µM | GI50 (NCI-H23 [6]): 2.63 µM | TGI (NCI-H23 [6]): 10.1 µM | CC50 (NCI-H23 [6]; [12]): 35.7 µM | Activity (NCI-H23 [7]): 70.39% | Activity (K562 [8]): -53.98% | GI50 (SN12C): 3.48 µM | TGI (SN12C): 14.6 µM | CC50 (SN12C; [12]): 41.2 µM | GI50 (PC-3): 1.72 µM | IC50 (PC-3): 3.61 µM | LC50 (concentration killing 50% of cells) (PC-3): 13.1 µM | TGI (PC-3): 4.34 µM | GI50 (KM12): 1.64 µM | TGI (KM12): 3.38 µM | CC50 (KM12; [12]): 7 µM | Activity (BT-549 [9]): 69.3% | GI50 (NCI-H226 [10]): 10.1 µM | TGI (NCI-H226 [10]): 23.3 µM | CC50 (NCI-H226 [10]; [12]): 53.6 µM | Activity (CAKI-1): 62.66% | Activity (T47D): -26.4% | GI50 (BT-549 [11]): 2.05 µM | TGI (BT-549 [11]): 6.05 µM | CC50 (BT-549 [11]; [12]): 24.6 µM | Activity (SK-MEL-5): -87.04%

— ChEMBL document CHEMBL2439971, “Design, synthesis and antiproliferative evaluation of fluorenone analogs with DNA topoisomerase I inhibitory properties” (Bioorg Med Chem, 2013)
